The source of these data is patent US6426330B1, “Satiety inducing composition comprising Neuropeptide Y analogues and methods of inducing satiety and treating a disease or condition associated with it” (East Carolina University, priority 1995, dated 2002).

Square brackets hold non-standard residues; d marks the D form. Ends that are not written are not given here.

This assay has as its system normotensive Sprague-Dawsley rats. Put plainly: In vivo activity: blood pressure and heart rate after intravenous dosing in catheterised rats. More on the design: species or system rat. As to the method: Male Sprague-Dawley rats obtained from Charles River Laboratories, Wilmington, Mass., and weighing 276-300 g, were group housed at 22° C. and kept on 12 hour light/dark cycle. Food and water were provided ad lib.
Animals were anesthetized with sodium pentobarbital (65 mg/kg) and under sterile conditions a one-inch incision was made in the fold of the left leg to expose the femoral blood vessels. Two lengths of PE-50 tubing filled with 10% heparin were inserted into the left femoral artery and left femoral vein for measurement of blood pressure and for drug delivery, respectively. The tubings were tunneled under the skin and exposed through the mid-scapular region. Animals were allowed at least 24 hours recovery prior to experiments.
A force transducer (Spectramed Model P23XL, Grass Instruments, Quincy, Mass., USA), and tachograph (Model 7P44D, Grass Instruments) was used for recording of systolic and diastolic pressures and heart rate from the femoral artery catheter. Patency of catheters was verified by flushing with either saline or 10% heparin.
A dose of either 30, 100, 500, 800 or 1000 nM/kg ([…]) of NPY27-36 (D-Tyr^27,36, D-Thr^32) (prepared as described in Example 1 above), or saline was delivered to the animal via the catheter in the left femoral vein. Changes in systolic and diastolic pressures and heart rater were recorded from the catheter in the left femoral artery over a 10 minute time interval.

The mark [1] stands for this setting: given intraveneously, doses 30-1000 nM/kg, recorded over 10 minutes, normotensive rats.

With “[dY]INLI[dT]RQR[dY]-NH2 [NPY27-36 (D-Tyr^27,36, D-Thr^32)]”, the “changes in mean arterial pressure and heart rate vs saline” value reads like this: (dose 30 nM/kg i.v.) “failed to produce changes that were significantly different from saline treatment”; (dose 100 nM/kg i.v.) “failed to produce changes that were significantly different from saline treatment”. Further, the “mean arterial pressure vs saline-treated controls” value (dose 500 nM/Kg i.v.) is “significantly different decreases”, the “mean arterial pressure vs saline-treated controls” value (dose 800 nM/Kg i.v.) is listed as “significantly different decreases” and the “mean arterial pressure vs saline-treated controls” value (dose 1000 nM/Kg i.v.) is reported as “significantly different decreases”. For the same substance, the “heart rate vs saline controls” value is, setting by setting: (dose 500 nM/kg i.v.) “significantly different increases”; (dose 1000 nM/kg i.v.) “significantly different increases”. The heart rate entry under setting [1] was “increase”. Besides, under setting [1], the mean arterial pressure entry is on record as “dose-dependent decrease”.
